Laboratory results reported in patent US11504370B2, “Treatment of brain cancer” (Array BioPharma Inc., priority 2012, dated 2022).
Read-outs that look alike come from different tables or passages of the source.

How the values were obtained:
[1] = test system: NCI-N87 gastric carcinoma cells; test: Anti-tumor efficacy on N87 human gastric cancer in murine xenograft model (subcutaneous); format: in vivo, mice; conditions: subcutaneous NCI-N87, N=8
Description: Nude nu/nu female mice (NCI, Bethesda, Md.) were split into five groups (N=8). Tumor cells (NCI-N87 gastric carcinoma cells, NCI, Bethesda, Md. 1×10^7) were implanted into the mice via subcutaneous injection (100 μL) directly on the right flank. To ensure good tumor take, the cells should be greater than 90% viable (thus, the intitial cell suspension of 1×10^7 cells/mL were injected for 1×10^6 cells injected/100 The tumors were allowed to grow to 150±50 mm^3. The tumor size was measured, and the mice were weighed. The mice were administered vehicle (30% Captisol®, 150 g in 500 mL DI water, PO, BID), lapatanib (50 mg/kg, PO, BID, 30% Captisol®), lapatanib (100 mg/kg, PO, BID, 30% Captisol®), N4-(4-([1,2,4]triazolo[1,5-a]pyridin-7-yloxy)-3-methylphenyl)-N6-(4,4-dimethyl-4,5-dihydrooxazol-2-yl)quinazoline-4,6-diamine (50 mg/kg, PO, QD, 30% Captisol) and N4-(4-([1,2,4]triazolo[1,5-a]pyridin-7-yloxy)-3-methylphenyl)-N6-(4,4-dimethyl-4,5-dihydrooxazol-2-yl)quinazoline-4,6-diamine (100 mg/kg, PO, QD, 30% Captisol). The tumor volume was measured. The number of partial responses in the mice was as follows: lapatanib (50 mg/kg) 0, lapatanib (100 mg/kg) 1, ARRY-380 (50 mg/kg) 1, ARRY-380 (100 mg/kg) 4.

[2] = Brain pharmacokinetic (PK) study in mice; format: in vivo; conditions: for Kp at 0.5 h / Kp at 1 h / Kp at 2 h / Kp at 4 h / concentration at 0.5 h / concentration at 1 h / concentration at 2 h / concentration at 4 h: mouse; for Kp at 0.5 h / Kp at 1 h / Kp at 2 h / Kp at 4 h: brain / plasma, ARRY-380 75 mg/kg, read-out: brain:plasma ratio
Description: The mice were separated into groups and their PK was studied at 4 time points (0.5, 1, 2 and 4 hours, 4 mice per group per timepoint). The animals were euthanized by CO2 inhalation at the time points. Whole blood was drawn (300 μL) by cardiac puncture and […] eppendorf tube containing ethylenediaminetetraacetic acid (“EDTA”) ([…]). The samples were centrifuged, and the plasma was decanted and frozen at -20° C. until delivered to analytical chemistry. The brains were collected. The animals were perfused with 5-10 mL of saline, and the brains were removed, weighed and placed into a fast prep tube for DMPK analysis.

[3] = Dissolution testing at pH 6.5 in phosphate buffer; format: physicochemical; conditions: pH 6.5 phosphate buffer, 37° C., about 240 minutes
Description: Dissolution testing was performed at a pH of 6.5 in phosphate buffer. […] The solid dispersion was suspended in H2O and added directly to the buffer solution at 37° C. […]

[4] = Physicochemical analysis: hygroscopicity
[5] = test system: NCI-N87 gastric carcinoma cells; test: Inhibition of NCI-N87 gastric carcinoma xenograft growth in mice implanted intracranially; format: in vivo; conditions: 75 mg/kg PO BID; intracranial NCI-N87, nude BALB/c mice; FIG. 3
Description: Anesthetized nude BALB/c female mice (Taconic Laboritories Inc., Germantown, N.Y.) were inoculated with human tumor cells (NCI-N87 gastric carcinoma cells, NCI, Bethesda, Md.) intracranially at lamba suture. 5×10^5 cells in saline were implanted via intracranial injection. The mice were separated into three groups (N=12); vehicle (acidified 30% Captisol®, pH about 4.5), 50 mg/kg lapatanib PO BID (30% Captisol®), and 75 mg/kg N4-(4-([1,2,4]triazolo[1,5-a]pyridin-7-yloxy)-3-methylphenyl)-N6-(4,4-dimethyl-4,5-dihydrooxazol-2-yl)quinazoline-4,6-diamine PO BID (acidified 30% Captisol®, pH about 4.5). Dosing began two days after implantation. The dose may have been reduced as necessary if drug-related weight loss (approximately 5%) was observed. The mice were monitored twice daily for general health and behavioral/neurological effects, and body weights (BW) were determined twice weekly. At first sign of neurological problem or body weight loss of greater than 20%, the mice were euthanized by CO2 inhalation. Brain and plasma were collected for analyses.

[6] = 50 mg/kg PO (lapatanib BID, ARRY-380 QD)
[7] = 100 mg/kg PO (lapatanib BID, ARRY-380 QD)
[8] = 0.5 hour, single PO dose, lapatanib 50 mg/kg, ARRY-380 75 mg/kg (AR00440993 = metabolite of ARRY-380), nude female BALB/c mice
[9] = 1 hour, single PO dose, lapatanib 50 mg/kg, ARRY-380 75 mg/kg (AR00440993 = metabolite of ARRY-380), nude female BALB/c mice
[10] = 2 hour, single PO dose, lapatanib 50 mg/kg, ARRY-380 75 mg/kg (AR00440993 = metabolite of ARRY-380), nude female BALB/c mice
[11] = 4 hour, single PO dose, lapatanib 50 mg/kg, ARRY-380 75 mg/kg (AR00440993 = metabolite of ARRY-380), nude female BALB/c mice
[12] = female, nude BALB/c, 0.5 hour, single PO dose, lapatanib 50 mg/kg
[13] = female, nude BALB/c, 1 hour, single PO dose, lapatanib 50 mg/kg
[14] = female, nude BALB/c, 2 hour, single PO dose, lapatanib 50 mg/kg
[15] = female, nude BALB/c, 4 hour, single PO dose, lapatanib 50 mg/kg
[16] = female, nude BALB/c, 0.5 hour, single PO dose, lapatanib 50 mg/kg, ARRY-380 75 mg/kg (AR00440993 = metabolite), perfused brain, read-out: Average Brain Concentration
[17] = female, nude BALB/c, 1 hour, single PO dose, lapatanib 50 mg/kg, ARRY-380 75 mg/kg (AR00440993 = metabolite), perfused brain, read-out: Average Brain Concentration
[18] = female, nude BALB/c, 2 hour, single PO dose, lapatanib 50 mg/kg, ARRY-380 75 mg/kg (AR00440993 = metabolite), perfused brain, read-out: Average Brain Concentration
[19] = female, nude BALB/c, 4 hour, single PO dose, lapatanib 50 mg/kg, ARRY-380 75 mg/kg (AR00440993 = metabolite), perfused brain, read-out: Average Brain Concentration

For CS(=O)(=O)CCNCc1ccc(-c2ccc3ncnc(Nc4ccc(OCc5cccc(F)c5)c(Cl)c4)c3c2)o1 [Lapatanib, lapatinib, reference compound], the “number of partial responses in the mice” value [1, 6] was 0, the “number of partial responses in the mice” value [1, 7] was 1 and the Average Plasma Concentration [2, 8] was 1910 ng/mL. For the same molecule, the Average Plasma Concentration [2, 9] was 4310 ng/mL, the Average Plasma Concentration [2, 10] was 1740 ng/mL and the Average Plasma Concentration [2, 11] was 1940 ng/mL. The Kp at 0.5 h [2, 12] was 0.026, the Kp at 1 h [2, 13] was 0.022 and the Kp at 2 h [2, 14] was 0.039. For the same molecule, the Kp at 4 h [2, 15] was 0.038, the concentration at 0.5 h [2, 16] was 44.9 ng/g and the concentration at 1 h [2, 17] was 90.8 ng/g. The concentration at 2 h [2, 18] was 57.4 ng/g and the concentration at 4 h [2, 19] was 65.4 ng/g.

In the case of CCO.Cc1cc(Nc2ncnc3ccc(NC4=NC(C)(C)CO4)cc23)ccc1Oc1ccn2ncnc2c1.Cc1cc(Nc2ncnc3ccc(NC4=NC(C)(C)CO4)cc23)ccc1Oc1ccn2ncnc2c1 [Example 21, N4-(4-([1,2,4]triazolo[1,5-a]pyridin-7-yloxy)-3-methylphenyl)-N6-(4,4-dimethyl-4,5-dihydrooxazol-2-yl)quinazoline-4,6-diamine freebase hemi-ethanolate], the “AUC for the free drug species” value [3] is reported as 5490 ng·h/mL and the “Cmax for the free drug species” value [3] is reported as 0.44 µg/mL.

For Cc1cc(Nc2ncnc3ccc(NC4=NC(C)(C)CO4)cc23)ccc1Oc1ccn2ncnc2c1 [REF], the “Hygroscopicity (% wt change at 80% RH)” value [4] was <1% wt change at 80% RH.

In the case of Cc1cc(Nc2ncnc3ccc(NC4=NC(C)(CO)CO4)cc23)ccc1Oc1ccn2ncnc2c1 (centres unmarked) [AR00440993, (2-((4-((4-([1,2,4]triazolo[1,5-a]pyridin-7-yloxy)-3-methylphenyl)amino)quinazolin-6-yl)amino)-4-methyl-4,5-dihydrooxazol-4-yl)methanol], the “Average Brain Concentration” value ([2]; 0.5 hour, single PO dose, lapatanib 50 mg/kg, ARRY-380 75 mg/kg (AR00440993 = metabolite), perfused brain) is reported as “BLQ”, the brain penetration ([2]; compared with lapatanib or ARRY-380, mice, after PO ARRY-380) is reported as “significantly higher” and the Kp at 1 h [2, 13] is reported as 2.08. The Kp at 2 h [2, 14] was 0.48, the Kp at 4 h [2, 15] was 1.31 and the concentration at 1 h [2, 17] was 28.9 ng/g. It also gave a concentration at 2 h [2, 18] of 35.8 ng/g, a concentration at 4 h [2, 19] of 40 ng/g and a concentration at 0.5 h ([2]; plasma, 0.5 hour, single PO dose, lapatanib 50 mg/kg, ARRY-380 75 mg/kg (AR00440993 = metabolite of ARRY-380), nude female BALB/c mice, read-out: Average Plasma Concentration) of 20.2 µg/mL. The concentration at 1 h ([2]; plasma, 1 hour, single PO dose, lapatanib 50 mg/kg, ARRY-380 75 mg/kg (AR00440993 = metabolite of ARRY-380), nude female BALB/c mice, read-out: Average Plasma Concentration) was 67.3 µg/mL, the concentration at 2 h ([2]; plasma, 2 hour, single PO dose, lapatanib 50 mg/kg, ARRY-380 75 mg/kg (AR00440993 = metabolite of ARRY-380), nude female BALB/c mice, read-out: Average Plasma Concentration) was 134 µg/mL and the concentration at 4 h ([2]; plasma, 4 hour, single PO dose, lapatanib 50 mg/kg, ARRY-380 75 mg/kg (AR00440993 = metabolite of ARRY-380), nude female BALB/c mice, read-out: Average Plasma Concentration) was 70.4 µg/mL.

For Cc1cc(Nc2ncnc3ccc(NC4=NC(C)(C)CO4)cc23)ccc1Oc1ccn2ncnc2c1 [ARRY-380, N4-(4-([1,2,4]Triazolo[1,5-a]pyridin-7-yloxy)-3-methylphenyl)-N6-(4,4-dimethyl-4,5-dihydrooxazol-2-yl)quinazoline-4,6-diamine], the “number of partial responses in the mice” value [1, 6] was 1, the “number of partial responses in the mice” value [1, 7] was 4 and the “phospho-ErbB2/total ErbB2 in the brain” value [5] was “significantly decreases”. It also gave an Average Plasma Concentration [2, 8] of 3350 ng/mL, an Average Plasma Concentration [2, 9] of 6420 ng/mL and an Average Plasma Concentration [2, 10] of 6010 ng/mL. It also gave an Average Plasma Concentration [2, 11] of 2640 ng/mL, a Kp at 0.5 h [2, 12] of 0.048 and a Kp at 1 h [2, 13] of 0.048. It also gave a Kp at 2 h [2, 14] of 0.021, a Kp at 4 h [2, 15] of 0.019 and a concentration at 0.5 h [2, 16] of 122 ng/g. For the same molecule, the concentration at 1 h [2, 17] was 116 ng/g, the concentration at 2 h [2, 18] was 134 ng/g and the concentration at 4 h [2, 19] was 42.1 ng/g.
